As a reminder, the Ki is a measure of affinity in units of concentration, obtained from inhibition or displacement. Lower therefore signals a stronger hold on the target.

Our source for the Ki values is ChEMBL document CHEMBL1124723, “Selective inhibition of gamma-aminobutyric acid aminotransferase by (3R,4R),(3S,4S)- and (3R,4S),(3S,4R)-4-amino-5-fluoro-3-phenylpentanoic acids” (J Med Chem, 1990).

Each structure is given as a SMILES string.

A short description of assay [1]: Binding affinity against L-glutamate decarboxylase in pig brain. Format: tissue-based, Sus scrofa.
Assay [2] has as its target 4-aminobutyrate aminotransferase, mitochondrial (Sus scrofa, UniProt P80147). As to the kind of experiment: Binding affinity against Gamma-amino-N-butyrate transaminase in pig brain. In kind it is tissue-based.

4-aminobutyrate aminotransferase, mitochondrial, sequence (P80147 whole entry): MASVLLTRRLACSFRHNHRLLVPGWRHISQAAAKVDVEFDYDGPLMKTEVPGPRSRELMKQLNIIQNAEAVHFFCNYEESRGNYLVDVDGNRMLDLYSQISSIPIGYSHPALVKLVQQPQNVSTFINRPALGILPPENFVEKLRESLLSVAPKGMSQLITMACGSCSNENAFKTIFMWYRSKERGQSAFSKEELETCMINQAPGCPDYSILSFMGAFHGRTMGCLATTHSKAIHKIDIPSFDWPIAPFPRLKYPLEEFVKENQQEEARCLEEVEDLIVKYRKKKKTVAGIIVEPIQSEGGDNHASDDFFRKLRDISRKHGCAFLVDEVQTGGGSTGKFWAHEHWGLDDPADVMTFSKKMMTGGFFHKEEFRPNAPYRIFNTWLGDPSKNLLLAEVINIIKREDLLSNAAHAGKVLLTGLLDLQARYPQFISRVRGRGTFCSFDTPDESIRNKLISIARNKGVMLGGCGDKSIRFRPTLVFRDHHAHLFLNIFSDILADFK

Regarding `NC(CF)CCC(=O)O` (stereo not drawn), in assay [1], the affinity, expressed as Ki, was 0.071 mM.

As to `N[C@@H](CF)[C@@H](CC(=O)O)c1ccccc1`, in assay [2], the affinity, expressed as Ki, was 8 mM.

For `N[C@H](CF)[C@@H](CC(=O)O)c1ccccc1`, the Ki in assay [2] was 1 mM.
